Laboratory results as given in paper PMC6478789, “A chemical toolbox for the study of bromodomains and epigenetic signaling” (Nature Communications, 2019).
Numbering of substitutions follows the chain as printed. Like-named read-outs stand apart in the source and are kept apart here. Each block holds one molecule with its values, some of them ahead of it.

Tests used:
TRIM33(PHD,BRD) = target: T1, TRIM33(PHD,BRD) (Homo sapiens, UniProt Q9UPN9); assay: BROMOscan ligand-binding assay
T1 sequence (Q9UPN9 882-1087 limits assumed): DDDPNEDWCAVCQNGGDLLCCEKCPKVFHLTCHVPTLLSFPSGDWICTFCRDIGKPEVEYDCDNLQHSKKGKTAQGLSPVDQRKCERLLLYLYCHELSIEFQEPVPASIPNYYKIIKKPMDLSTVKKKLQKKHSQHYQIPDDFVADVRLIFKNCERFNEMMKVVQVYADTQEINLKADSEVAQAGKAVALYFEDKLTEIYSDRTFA
Description: (§1) BROMOscan is a binding assay based on the well-known KINOMEscan technology. This assay measures the binding of a DNA-tagged bromodomain to an immobilized BRD ligand. If an inhibitor is present, it will compete with the bromodomain binding to the immobilized ligand, resulting in reduction of a quantitative PCR (qPCR) signal in a dose-dependent manner.

BRDT(2) = BRDT(2) (Homo sapiens, UniProt Q58F21); assay: BROMOscan ligand-binding assay; conditions: BROMOscan Gene Symbol BRDT(2)
Description: as §1

BRD3(2) = BRD3(2) (Homo sapiens, UniProt Q15059); assay: BROMOscan ligand-binding assay; conditions: BROMOscan Gene Symbol BRD3(2)
Description: as §1

BRPF3 = target: T2, BRPF3 (Homo sapiens, UniProt Q9ULD4); assay: BROMOscan ligand-binding assay
T2 sequence (Q9ULD4 589-693 limits assumed): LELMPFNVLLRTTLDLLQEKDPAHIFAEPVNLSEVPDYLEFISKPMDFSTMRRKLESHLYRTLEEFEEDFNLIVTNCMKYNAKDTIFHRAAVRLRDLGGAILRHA
Description: as §1

BRD2(2) = BRD2(2) (Homo sapiens, UniProt P25440); assay: BROMOscan ligand-binding assay; conditions: BROMOscan Gene Symbol BRD2(2)
Description: as §1

BAZ2B = target: T3, BAZ2B (Homo sapiens, UniProt Q9UIF8); assay: BROMOscan ligand-binding assay
T3 sequence (Q9UIF8 2060-2164 limits assumed): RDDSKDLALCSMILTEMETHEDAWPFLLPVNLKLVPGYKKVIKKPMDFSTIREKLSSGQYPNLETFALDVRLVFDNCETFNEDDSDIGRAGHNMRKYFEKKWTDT
Description: as §1

BRD3(1) = BRD3(1) (Homo sapiens, UniProt Q15059); assay: BROMOscan ligand-binding assay; conditions: BROMOscan Gene Symbol BRD3(1)
Description: as §1

EP300 [1] = target: T4, EP300 (Homo sapiens, UniProt Q09472); assay: BROMOscan ligand-binding assay; conditions: BROMOscan Gene Symbol EP300
T4 sequence (Q09472 1049-1156 limits assumed): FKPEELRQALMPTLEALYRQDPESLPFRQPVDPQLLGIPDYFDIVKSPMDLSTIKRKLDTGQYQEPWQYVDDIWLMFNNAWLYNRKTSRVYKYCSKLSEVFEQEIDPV
Description: as §1

BRPF1 = target: T5, BRPF1 (Homo sapiens, UniProt P55201); assay: BROMOscan ligand-binding assay; conditions: BROMOscan Gene Symbol BRPF1
T5 sequence (P55201 628-732 limits assumed): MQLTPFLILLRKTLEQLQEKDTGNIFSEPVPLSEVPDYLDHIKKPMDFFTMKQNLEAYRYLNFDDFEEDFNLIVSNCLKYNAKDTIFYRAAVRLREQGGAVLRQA
Description: as §1

FALZ = FALZ (Homo sapiens, UniProt Q12830); assay: BROMOscan ligand-binding assay
Description: as §1

BRDT(1) = BRDT(1) (Homo sapiens, UniProt Q58F21); assay: BROMOscan ligand-binding assay; conditions: BROMOscan Gene Symbol BRDT(1)
Description: as §1

TAF1L(2) = target: T6, TAF1L(2) (Homo sapiens, UniProt Q8IZX4); assay: BROMOscan ligand-binding assay; conditions: BROMOscan Gene Symbol TAF1L(2)
T6 sequence (Q8IZX4 1517-1626 limits assumed): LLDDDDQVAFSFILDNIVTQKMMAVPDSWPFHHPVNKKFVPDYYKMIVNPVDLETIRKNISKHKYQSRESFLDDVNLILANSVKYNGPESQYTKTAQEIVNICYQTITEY
Description: as §1

ATAD2B = target: T7, ATAD2B (Homo sapiens, UniProt Q9ULI0); assay: BROMOscan ligand-binding assay
T7 sequence (Q9ULI0 951-1066 limits assumed): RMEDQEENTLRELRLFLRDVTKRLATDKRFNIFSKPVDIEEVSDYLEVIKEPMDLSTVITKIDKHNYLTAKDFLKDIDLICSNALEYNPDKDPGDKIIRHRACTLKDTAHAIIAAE
Description: as §1

PBRM1(2) = PBRM1(2) (Homo sapiens, UniProt Q86U86); assay: BROMOscan ligand-binding assay; conditions: BROMOscan Gene Symbol PBRM1(2)
Description: as §1

TAF1(2) = target: T8, TAF1(2) (Homo sapiens, UniProt P21675); assay: BROMOscan ligand-binding assay; conditions: BROMOscan Gene Symbol TAF1(2)
T8 sequence (P21675 1519-1628 limits assumed): T6 sequence (Q8IZX4 1517-1626 limits assumed) with M46V, V51M, I102V, I107L
Description: as §1

WDR9(2) = WDR9(2) (Homo sapiens, UniProt Q9NSI6); assay: BROMOscan ligand-binding assay; conditions: BROMOscan Gene Symbol WDR9(2)
Description: as §1

BRD9 = target: T9, BRD9 (Homo sapiens, UniProt Q9H8M2); assay: BROMOscan ligand-binding assay; conditions: BROMOscan Gene Symbol BRD9
T9 sequence (Q9H8M2 136-240 limits assumed): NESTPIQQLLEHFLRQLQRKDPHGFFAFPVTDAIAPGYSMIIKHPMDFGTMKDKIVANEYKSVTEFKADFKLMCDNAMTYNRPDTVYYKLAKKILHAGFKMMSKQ
Description: as §1

TRIM24(PHD,BRD) = target: T10, TRIM24(PHD,BRD) (Homo sapiens, UniProt O15164); assay: BROMOscan ligand-binding assay; conditions: BROMOscan Gene Symbol TRIM24(PHD,Bromo.)
T10 sequence (O15164 824-1006 limits assumed): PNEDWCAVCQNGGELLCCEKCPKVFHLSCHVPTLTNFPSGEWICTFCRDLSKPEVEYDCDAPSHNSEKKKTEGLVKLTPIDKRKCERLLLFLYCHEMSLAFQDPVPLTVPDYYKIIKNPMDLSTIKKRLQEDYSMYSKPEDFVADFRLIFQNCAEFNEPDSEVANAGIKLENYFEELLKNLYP
Description: as §1

ATAD2A = target: T11, ATAD2A (Homo sapiens, UniProt Q6PL18); assay: BROMOscan ligand-binding assay
T11 sequence (Q6PL18 980-1092 limits assumed): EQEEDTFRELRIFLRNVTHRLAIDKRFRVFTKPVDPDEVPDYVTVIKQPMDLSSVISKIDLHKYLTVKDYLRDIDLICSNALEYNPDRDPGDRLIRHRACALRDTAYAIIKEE
Description: as §1

BRD1 = target: T12, BRD1 (Homo sapiens, UniProt O95696); assay: BROMOscan ligand-binding assay; conditions: BROMOscan Gene Symbol BRD1
T12 sequence (O95696 562-666 limits assumed): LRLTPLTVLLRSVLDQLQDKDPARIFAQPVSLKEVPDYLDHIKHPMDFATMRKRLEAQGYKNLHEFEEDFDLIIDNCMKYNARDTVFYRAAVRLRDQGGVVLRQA
Description: as §1

BAZ2A = target: T13, BAZ2A (Homo sapiens, UniProt Q9UIF9); assay: BROMOscan ligand-binding assay; conditions: BROMOscan Gene Symbol BAZ2A
T13 sequence (Q9UIF9 1793-1897 limits assumed): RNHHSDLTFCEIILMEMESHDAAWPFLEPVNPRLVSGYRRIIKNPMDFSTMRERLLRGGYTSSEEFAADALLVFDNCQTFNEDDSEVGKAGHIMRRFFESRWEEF
Description: as §1

BRD2(1) = BRD2(1) (Homo sapiens, UniProt P25440); assay: BROMOscan ligand-binding assay; conditions: BROMOscan Gene Symbol BRD2(1)
Description: as §1

MYST1 = target: T14, MYST1 (Homo sapiens, UniProt Q9H7Z6); assay: Histone acetyltransferase (HAT) activity assay; type: biochemical; conditions: read-out: HATs Activity (%);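 note: selectivity screen across a panel of histone acetyltransferases, with compounds tested at 1 and 10 µM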
T14 sequence (Q9H7Z6 1-458): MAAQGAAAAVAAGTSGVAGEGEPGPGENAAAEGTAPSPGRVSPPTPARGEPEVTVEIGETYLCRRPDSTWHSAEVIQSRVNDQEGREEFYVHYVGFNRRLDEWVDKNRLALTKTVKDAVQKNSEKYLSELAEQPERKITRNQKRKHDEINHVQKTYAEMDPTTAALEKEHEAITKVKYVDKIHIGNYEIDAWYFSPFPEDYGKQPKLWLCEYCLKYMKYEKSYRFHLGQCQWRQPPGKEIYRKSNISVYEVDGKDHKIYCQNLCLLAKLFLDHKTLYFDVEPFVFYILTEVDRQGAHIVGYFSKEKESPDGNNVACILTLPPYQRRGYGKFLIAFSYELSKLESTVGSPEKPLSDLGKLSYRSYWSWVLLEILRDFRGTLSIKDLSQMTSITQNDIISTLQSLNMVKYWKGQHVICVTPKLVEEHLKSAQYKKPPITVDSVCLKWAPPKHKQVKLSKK

EP300 [2] = target: EP300 (Homo sapiens, UniProt Q09472); assay: Histone acetyltransferase (HAT) activity assay; type: biochemical; conditions: read-out: HATs Activity (%);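 note: selectivity screen of bromodomain probe compounds against histone acetyltransferases, with enzyme activity given in percent for compounds tested at 1 and 10 µM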
Target sequence in this assay (Q09472 whole entry, species assumed): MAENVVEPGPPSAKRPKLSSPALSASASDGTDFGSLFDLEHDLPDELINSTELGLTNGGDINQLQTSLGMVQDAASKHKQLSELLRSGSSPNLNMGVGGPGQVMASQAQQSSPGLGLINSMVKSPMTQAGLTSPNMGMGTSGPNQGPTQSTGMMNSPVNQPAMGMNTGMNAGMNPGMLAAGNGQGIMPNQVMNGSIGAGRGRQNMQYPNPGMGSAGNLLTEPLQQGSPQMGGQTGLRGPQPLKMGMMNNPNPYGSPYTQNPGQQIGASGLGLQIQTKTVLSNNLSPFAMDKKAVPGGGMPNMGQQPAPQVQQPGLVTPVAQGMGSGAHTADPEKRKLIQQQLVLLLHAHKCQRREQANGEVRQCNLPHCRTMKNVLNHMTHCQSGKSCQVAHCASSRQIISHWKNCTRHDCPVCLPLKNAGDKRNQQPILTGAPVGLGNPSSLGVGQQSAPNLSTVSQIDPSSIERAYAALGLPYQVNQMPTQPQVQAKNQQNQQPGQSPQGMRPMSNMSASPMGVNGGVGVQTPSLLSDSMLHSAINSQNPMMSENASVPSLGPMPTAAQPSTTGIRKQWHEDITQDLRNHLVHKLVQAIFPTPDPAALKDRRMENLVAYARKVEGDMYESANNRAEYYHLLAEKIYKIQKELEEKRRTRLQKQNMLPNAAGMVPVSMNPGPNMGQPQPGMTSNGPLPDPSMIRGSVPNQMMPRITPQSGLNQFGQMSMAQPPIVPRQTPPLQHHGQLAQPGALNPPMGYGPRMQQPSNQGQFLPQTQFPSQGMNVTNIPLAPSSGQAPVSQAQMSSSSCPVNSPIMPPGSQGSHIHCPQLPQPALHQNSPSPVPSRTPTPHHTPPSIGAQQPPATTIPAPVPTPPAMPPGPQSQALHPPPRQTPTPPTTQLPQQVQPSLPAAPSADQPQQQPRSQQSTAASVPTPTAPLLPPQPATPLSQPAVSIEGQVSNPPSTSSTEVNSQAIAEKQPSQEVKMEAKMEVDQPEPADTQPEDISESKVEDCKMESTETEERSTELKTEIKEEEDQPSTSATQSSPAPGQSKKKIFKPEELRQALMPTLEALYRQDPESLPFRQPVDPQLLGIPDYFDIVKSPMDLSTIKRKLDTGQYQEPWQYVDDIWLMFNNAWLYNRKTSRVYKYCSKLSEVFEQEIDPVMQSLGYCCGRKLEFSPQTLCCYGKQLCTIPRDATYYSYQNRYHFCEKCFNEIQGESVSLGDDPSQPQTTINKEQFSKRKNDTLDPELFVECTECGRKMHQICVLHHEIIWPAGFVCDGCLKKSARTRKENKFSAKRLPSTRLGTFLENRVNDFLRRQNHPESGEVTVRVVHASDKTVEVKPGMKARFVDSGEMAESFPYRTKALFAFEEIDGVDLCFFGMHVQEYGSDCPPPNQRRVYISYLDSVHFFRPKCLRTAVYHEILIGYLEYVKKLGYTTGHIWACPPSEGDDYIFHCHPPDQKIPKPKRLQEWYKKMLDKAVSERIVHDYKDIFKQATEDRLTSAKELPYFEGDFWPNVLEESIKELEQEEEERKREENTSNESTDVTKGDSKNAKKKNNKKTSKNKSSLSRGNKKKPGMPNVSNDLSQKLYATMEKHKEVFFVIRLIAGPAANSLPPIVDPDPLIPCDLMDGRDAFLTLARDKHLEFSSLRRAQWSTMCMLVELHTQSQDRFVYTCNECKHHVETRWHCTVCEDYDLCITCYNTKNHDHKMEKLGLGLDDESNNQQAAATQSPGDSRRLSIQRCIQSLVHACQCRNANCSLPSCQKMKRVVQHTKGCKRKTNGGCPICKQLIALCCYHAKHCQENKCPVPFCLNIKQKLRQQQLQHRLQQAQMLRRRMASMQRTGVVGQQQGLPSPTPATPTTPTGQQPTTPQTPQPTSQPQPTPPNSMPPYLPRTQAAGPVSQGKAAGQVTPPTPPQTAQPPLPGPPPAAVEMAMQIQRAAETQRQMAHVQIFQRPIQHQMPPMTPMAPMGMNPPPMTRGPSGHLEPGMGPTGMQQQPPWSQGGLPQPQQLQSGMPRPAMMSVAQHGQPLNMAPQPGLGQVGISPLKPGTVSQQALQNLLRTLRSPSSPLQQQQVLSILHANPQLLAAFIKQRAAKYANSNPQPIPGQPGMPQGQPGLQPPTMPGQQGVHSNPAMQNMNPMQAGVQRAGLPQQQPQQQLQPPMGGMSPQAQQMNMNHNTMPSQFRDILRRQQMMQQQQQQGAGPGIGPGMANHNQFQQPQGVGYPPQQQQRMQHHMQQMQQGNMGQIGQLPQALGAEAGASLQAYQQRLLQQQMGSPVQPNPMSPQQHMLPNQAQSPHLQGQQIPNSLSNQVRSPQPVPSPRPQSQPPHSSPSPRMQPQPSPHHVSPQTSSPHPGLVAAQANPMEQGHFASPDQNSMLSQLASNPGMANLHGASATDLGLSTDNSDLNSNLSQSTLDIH

HAT1 = target: T15, HAT1 (Homo sapiens, UniProt O14929); assay: Histone acetyltransferase (HAT) activity assay; type: biochemical; conditions: read-out: HATs Activity (%);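 note: HAT selectivity screen of BRD probe compounds, enzyme activity in % measured with compound at 1 µM and 10 µM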
T15 sequence (O14929 1-419): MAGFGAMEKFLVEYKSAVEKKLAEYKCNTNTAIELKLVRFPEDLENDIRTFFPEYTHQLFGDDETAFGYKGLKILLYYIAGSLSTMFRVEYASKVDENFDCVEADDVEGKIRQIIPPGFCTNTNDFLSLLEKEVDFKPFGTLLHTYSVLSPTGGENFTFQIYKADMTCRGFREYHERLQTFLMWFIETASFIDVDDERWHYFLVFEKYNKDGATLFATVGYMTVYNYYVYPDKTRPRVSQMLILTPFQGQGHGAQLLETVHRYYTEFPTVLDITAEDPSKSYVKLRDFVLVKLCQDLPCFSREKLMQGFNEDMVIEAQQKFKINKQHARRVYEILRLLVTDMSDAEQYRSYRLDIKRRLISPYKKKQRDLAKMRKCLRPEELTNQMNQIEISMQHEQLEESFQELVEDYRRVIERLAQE

MYST3 = MYST3 (Homo sapiens, UniProt Q92794); assay: Histone acetyltransferase (HAT) activity assay; type: biochemical; conditions: read-out: HATs Activity (%);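 note: selectivity screen of bromodomain probe compounds across a panel of histone acetyltransferases, read out as enzyme activity in %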
GCN5L2 = GCN5L2 (Homo sapiens, UniProt Q92830); assay: Histone acetyltransferase (HAT) activity assay; type: biochemical; conditions: read-out: HATs Activity (%);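 note: selectivity screen of BRD probe compounds across a panel of histone acetyltransferases, HAT activity in % with compound at 1 or 10 µM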
[3] = read-out: KD (BROMOscan), sheet prints no unit (nM)

GCN5L2, sequence (Q92830 whole entry, species assumed): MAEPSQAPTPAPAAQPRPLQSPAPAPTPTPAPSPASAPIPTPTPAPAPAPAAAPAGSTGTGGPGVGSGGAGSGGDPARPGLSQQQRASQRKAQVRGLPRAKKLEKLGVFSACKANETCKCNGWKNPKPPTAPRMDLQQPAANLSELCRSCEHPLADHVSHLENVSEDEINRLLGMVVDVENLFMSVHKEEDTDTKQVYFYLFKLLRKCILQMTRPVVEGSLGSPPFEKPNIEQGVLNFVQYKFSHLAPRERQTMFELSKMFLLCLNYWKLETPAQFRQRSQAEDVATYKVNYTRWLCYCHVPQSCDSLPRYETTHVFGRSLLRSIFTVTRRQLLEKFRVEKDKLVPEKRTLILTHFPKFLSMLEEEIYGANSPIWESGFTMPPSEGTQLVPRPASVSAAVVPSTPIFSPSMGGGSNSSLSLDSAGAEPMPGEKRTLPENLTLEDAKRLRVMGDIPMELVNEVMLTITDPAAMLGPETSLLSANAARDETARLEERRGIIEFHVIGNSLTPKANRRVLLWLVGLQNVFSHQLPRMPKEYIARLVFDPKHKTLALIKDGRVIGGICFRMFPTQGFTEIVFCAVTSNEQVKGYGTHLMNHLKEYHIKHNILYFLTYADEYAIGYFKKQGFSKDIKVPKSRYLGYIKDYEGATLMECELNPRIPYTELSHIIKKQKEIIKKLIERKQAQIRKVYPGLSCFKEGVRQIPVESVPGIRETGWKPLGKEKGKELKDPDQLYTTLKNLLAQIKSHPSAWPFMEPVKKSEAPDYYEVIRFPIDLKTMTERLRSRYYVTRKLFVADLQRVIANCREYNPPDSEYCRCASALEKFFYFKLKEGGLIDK
BRD3(2), sequence (Q15059 306-415 limits assumed): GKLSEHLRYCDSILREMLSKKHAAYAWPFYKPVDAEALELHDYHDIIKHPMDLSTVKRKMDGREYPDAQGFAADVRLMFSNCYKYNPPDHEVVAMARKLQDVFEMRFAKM
BRD2(2), sequence (P25440 344-453 limits assumed): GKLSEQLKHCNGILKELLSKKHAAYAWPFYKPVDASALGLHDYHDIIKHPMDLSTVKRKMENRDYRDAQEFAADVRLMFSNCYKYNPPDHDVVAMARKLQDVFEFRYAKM
BRD3(1), sequence (Q15059 34-140 limits assumed): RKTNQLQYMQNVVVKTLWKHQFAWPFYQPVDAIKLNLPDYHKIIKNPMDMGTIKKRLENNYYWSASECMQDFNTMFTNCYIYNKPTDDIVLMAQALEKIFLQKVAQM
BRD2(1), sequence (P25440 74-180 limits assumed): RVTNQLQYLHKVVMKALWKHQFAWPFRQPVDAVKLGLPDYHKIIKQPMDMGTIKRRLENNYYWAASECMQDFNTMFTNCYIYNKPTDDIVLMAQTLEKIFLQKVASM
WDR9(2), sequence (Q9NSI6 1313-1418 limits assumed): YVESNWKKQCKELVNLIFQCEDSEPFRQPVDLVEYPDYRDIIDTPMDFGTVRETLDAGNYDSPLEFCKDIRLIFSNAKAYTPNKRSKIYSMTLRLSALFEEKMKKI
PBRM1(2), sequence (Q86U86 177-287 limits assumed): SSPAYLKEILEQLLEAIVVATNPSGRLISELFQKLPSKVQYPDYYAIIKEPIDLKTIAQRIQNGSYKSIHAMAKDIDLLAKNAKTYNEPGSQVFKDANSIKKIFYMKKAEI

Kd (TRIM33(PHD,BRD); BROMOscan Gene Symbol TRIM33(PHD,Bromo.)): > 50000 nM | Kd (TRIM33(PHD,BRD); [3]): > 30000 nM | Kd (BRDT(2)): 18 µM | Kd (BRD3(2)): 4.6 µM | Kd (BRPF3; BROMOscan Gene Symbol BRPF3): > 50000 nM | Kd (BRPF3; [3]): > 30000 nM | Kd (BRD2(2)): 3.6 µM | Kd (BAZ2B; BROMOscan Gene Symbol BAZ2B): > 50000 nM | Kd (BAZ2B; [3]): > 30000 nM | Kd (BRD3(1)): 1.4 µM | Kd (EP300 [1]): 0.044 µM | Kd (BRPF1): 11 µM | Kd (FALZ; BROMOscan Gene Symbol FALZ): > 50000 nM | Kd (FALZ; [3]): > 30000 nM | Kd (BRDT(1)): 3.6 µM | Kd (TAF1L(2)): 14 µM | Kd (ATAD2B; BROMOscan Gene Symbol ATAD2B): > 50000 nM | Kd (ATAD2B; [3]): > 30000 nM | Kd (PBRM1(2)): 44 µM | Kd (TAF1(2)): 1.6 µM | Kd (WDR9(2)): 41 µM | Kd (BRD9): 10 µM | Kd (TRIM24(PHD,BRD)): 26 µM | Kd (ATAD2A; BROMOscan Gene Symbol ATAD2A): > 150000 nM | Kd (ATAD2A; [3]): > 30000 nM | Kd (BRD1): 47 µM | Kd (BAZ2A): 75 µM | Kd (BRD2(1)): 1.5 µM
SMILES: COc1ccc(CCc2nc3cc(-c4c(C)noc4C)ccc3n2CCN2CCOCC2)cc1 [CBP30-383]

activity at 1 µM (MYST1): 106% | activity at 10 µM (MYST1): 101% | activity at 1 µM (EP300 [2]): 99% | activity at 10 µM (EP300 [2]): 94% | activity at 1 µM (HAT1): 99% | activity at 10 µM (HAT1): 96% | activity at 1 µM (MYST3): 99% | activity at 10 µM (MYST3): 100% | activity at 1 µM (GCN5L2): 102% | activity at 10 µM (GCN5L2): 100%
SMILES: COc1cc(-c2cn(C)c(=O)c3cnccc23)c(OC)cc1CN(C)C [BI-9564]

activity at 1 µM (MYST1): 100% | activity at 10 µM (MYST1): 103% | activity at 1 µM (EP300 [2]): 95% | activity at 10 µM (EP300 [2]): 96% | activity at 1 µM (HAT1): 98% | activity at 10 µM (HAT1): 97% | activity at 1 µM (MYST3): 99% | activity at 10 µM (MYST3): 98% | activity at 1 µM (GCN5L2): 94% | activity at 10 µM (GCN5L2): 92%
SMILES: CC(=O)c1cc(-c2cc(C(=O)NC3CC3)ccc2C)c2ncccn12 [TP-472]
